Patent US20230263826A1, “Compositions and Methods for Treatment and Prevention of Type 1 Diabetes” (The UAB Research Foundation, priority 2021, published 2023)

How the values were obtained:
[1] = system: female NOD mice; assay: i.p. glucose tolerance test (GTT) in FKGK18-treated NOD mice; format: in vivo, mouse; conditions: for glucose tolerance vs PBS-T: glucose 2 g/kg i.p.
Method: (§1) FIGS. 1A-1M show the effects of temporal FKGK18 regimen on T1D incidence and islet phenotype, wherein female NOD mice were administered FKGK18 (20 mg/kg, 3 × weekly) or vehicle (PBS-T) starting at 4 or 8 weeks of age. FIGS. 1A and 1B show diabetes incidence; blood glucose was monitored weekly in the 4-week (FIG. 1A; n = 17 and 15 for PBS-T and FKGK18 groups, respectively) and 8-week (FIG. 1B; n = 15 each in the PBS-T and FKGK18 groups) regimen groups for up to 30 weeks. Two consecutive readings of ≥ 275 mg/dL were recorded as onset of T1D (^†P < 0.05). FIGS. 1C-1F show glucose tolerance test (GTT) results, wherein overnight fasted mice were administered glucose (2 g/kg, i.p.), glucose levels in blood from tail vein were monitored over a 2-hour period, and AUC were generated. FIGS. 1C and 1D show four-week group at 14 weeks of age; n = 5 each in the PBS-T and FKGK18 groups. FIGS. 1E and 1F show eight-week group at 25 weeks of age; n = 7 and 5 for PBS-T and FKGK18 groups, respectively. FIGS. 1G-1I show phenotype parameters in the 8-week regimen group. […] FIGS. 1H and 1I show β Cell mass (PBS-T, n = 15; FKGK18, n = 14) (FIG. 1H) and circulating insulin (n = 15 in each group) (FIG. 1I) were determined at sacrifice (PBS-T, 14-30 weeks of age; FKGK18, 16-36 weeks of age). FIGS. 1J and 1K show islet infiltration; paraffin sections (10 µm) of pancreas were prepared and stained with H&E. Percent infiltration for each islet was calculated as the value of noninfiltrated area subtracted from total islet area (% infiltrate = 100 × [(total area - noninfiltrated area)/(total area)]) using ImageJ software. […]
FIGS. 2A-2E show the effects of FKGK18-withdrawal regimen on T1D incidence and glucose tolerance, wherein female NOD mice were administered FKGK18 (20 mg/kg, 3 × weekly, n = 18) or vehicle (PBS-T, n = 17) starting at 10 days of age and until 14 weeks of age. […] FIGS. 2B and 2D show glucose tolerance test (GTT) results, assessed at 14 (FIG. 2B) and 25 (FIG. 2D) weeks of age (data are presented as mean ± SEM), as described in FIG. 1. […]

[2] = molecular target: T1, iPLA2β (Mus musculus, UniProt P97819); assay: Urinary PGE2 metabolites (PGEM), reflecting in vivo inhibition of iPLA2β activity; conditions: 8-week regimen group; 18 weeks of age
T1 construct: from tissue; host or cells: whole animal: female NOD mice (wild-type Pla2g6), urine collected for PGE2 metabolites
T1 sequence (P97819 1-807): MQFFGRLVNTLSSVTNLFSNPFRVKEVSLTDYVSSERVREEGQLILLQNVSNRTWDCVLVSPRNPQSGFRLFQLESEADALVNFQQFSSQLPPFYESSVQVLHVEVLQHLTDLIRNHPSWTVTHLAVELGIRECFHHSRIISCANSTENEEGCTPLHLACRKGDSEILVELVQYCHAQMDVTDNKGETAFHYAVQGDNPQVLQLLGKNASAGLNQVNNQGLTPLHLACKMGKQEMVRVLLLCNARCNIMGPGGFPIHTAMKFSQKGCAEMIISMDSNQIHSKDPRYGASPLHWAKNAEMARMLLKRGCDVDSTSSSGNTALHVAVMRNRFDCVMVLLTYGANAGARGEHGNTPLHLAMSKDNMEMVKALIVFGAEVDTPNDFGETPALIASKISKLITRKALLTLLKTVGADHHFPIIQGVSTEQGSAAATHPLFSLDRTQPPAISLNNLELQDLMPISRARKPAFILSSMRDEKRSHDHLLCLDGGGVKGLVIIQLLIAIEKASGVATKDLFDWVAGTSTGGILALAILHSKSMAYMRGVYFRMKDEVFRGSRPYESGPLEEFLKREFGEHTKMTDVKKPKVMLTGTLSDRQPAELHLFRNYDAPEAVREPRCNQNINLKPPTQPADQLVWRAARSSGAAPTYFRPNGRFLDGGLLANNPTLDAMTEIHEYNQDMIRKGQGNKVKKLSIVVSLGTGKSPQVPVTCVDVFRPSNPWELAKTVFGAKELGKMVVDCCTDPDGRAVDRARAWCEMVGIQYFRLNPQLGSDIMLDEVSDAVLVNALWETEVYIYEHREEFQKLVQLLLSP
Method: as §1, with “generated.” for “generated. FIGS. 1C and 1D show four-week group at 14 weeks of age; n = 5 each in the PBS-T and FKGK18 groups. FIGS. 1E and 1F show eight-week group at 25 weeks of age; n = 7 and 5 for PBS-T and FKGK18 groups, respectively. FIGS. 1G-1I show phenotype parameters in the 8-week regimen group.”

SMILES: O=C(CCCCc1ccc2ccccc2c1)C(F)(F)F [FKGK18]
- glucose tolerance, PBS-T vs FKGK18-withdrawn group ([1]; FKGK18 from 10 days until 14 weeks of age, GTT at 14 and 25 weeks of age): indistinguishable
- glucose tolerance vs PBS-T ([1]; FKGK18 started at 4 weeks of age, GTT at 14 weeks of age): No differences
- glucose tolerance vs PBS-T ([1]; FKGK18 started at 8 weeks of age, GTT at 25 weeks of age): No differences
- urinary PGE2 metabolites (PGEM) relative to vehicle-treated mice [2]: reduced
